{"source": "patent EP2567959B1", "about": "“6-(4-HYDROXY-PHENYL)-3-STYRYL-1H-PYRAZOLO[3,4-B]PYRIDINE-4-CARBOXYLIC ACID AMIDE DERIVATIVES AS KINASE INHIBITORS” (SANOFI, priority 2011, dated 2013)"}
{"target": "T1, human full-length recombinant PKC βII (Homo sapiens, UniProt P05771)", "T1 construct": "Active human full-length recombinant PKC βII; purchased Invitrogen GmbH, Darmstadt, Germany", "T1 sequence (P05771 1-673 isoform P05771-2)": "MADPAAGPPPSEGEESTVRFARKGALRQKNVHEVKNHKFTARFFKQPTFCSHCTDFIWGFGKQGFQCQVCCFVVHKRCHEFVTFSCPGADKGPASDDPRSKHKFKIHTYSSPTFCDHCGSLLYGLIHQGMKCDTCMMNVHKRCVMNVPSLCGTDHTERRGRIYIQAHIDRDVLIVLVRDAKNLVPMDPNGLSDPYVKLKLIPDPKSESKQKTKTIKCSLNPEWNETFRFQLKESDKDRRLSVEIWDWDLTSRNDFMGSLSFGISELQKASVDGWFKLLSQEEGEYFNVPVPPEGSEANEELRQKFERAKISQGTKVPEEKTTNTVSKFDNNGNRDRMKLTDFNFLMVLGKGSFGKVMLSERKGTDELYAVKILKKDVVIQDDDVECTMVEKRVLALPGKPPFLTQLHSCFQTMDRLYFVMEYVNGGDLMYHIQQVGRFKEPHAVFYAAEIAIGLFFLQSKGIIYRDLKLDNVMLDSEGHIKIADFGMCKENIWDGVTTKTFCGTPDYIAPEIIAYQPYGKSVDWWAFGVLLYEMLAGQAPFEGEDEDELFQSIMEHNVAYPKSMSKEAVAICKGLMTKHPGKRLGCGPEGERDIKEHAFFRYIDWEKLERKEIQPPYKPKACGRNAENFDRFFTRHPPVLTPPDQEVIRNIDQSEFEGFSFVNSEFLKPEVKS", "assay": "Determination of PKC βII inhibition (Caliper mobility-shift kinase assay, phosphorylation of fluorescein peptide substrate)", "assay_type": "biochemical", "conditions": "1 h; final compound concentration 1.14 µM (±0.15 µM); 60 min incubation at 32 °C", "protocol": "(§1) Determination of PKC βII inhibition\n(§2) PKC βII inhibition was determined according to the following protocol:\n(§3) Active human full-length recombinant PKC βII and the peptide substrate, Fluorescein-RFARKGSLRQKNV, were purchased from Invitrogen GmbH, Darmstadt, Germany. Adenosine-5'-triphosphate (ATP), bovine serum albumine (BSA), dimethylsulphoxide (DMSO), 4-(2-hydroxyethyl)piperazine-1-ethanesulfonic acid (Hepes), Triton X-100, 1,2-Dioleoyl-sn-glycerol (DAG), L-α-Phosphatidyl-L-serine (PS), calcium chloride (CaCl2), and Pluronic F-68 were purchased from Sigma-Aldrich, Munich, Germany. Magnesium chloride, 1 M sodium hydroxide solution, 1M hydrochloric acid solution and EDTA were obtained from Merck Biosciences, Darmstadt, Germany.\n(§4) Test compounds were diluted to three times the test concentration in buffer 1 (30 mM Hepes-NaOH, pH 7.4, 0.01 % Pluronic F-68 and 3 % (v/v) DMSO). The PKC βII enzyme was diluted to a concentration of 30 ng/ml in buffer 2 (30 mM Hepes-NaOH, pH 7.4, 15 mM MgCl2,150 µM CaCl2, 150 µg/ml PS, 60 µg/ml DAG, and 0.045 % (w/v) Triton X-100). The peptide substrate and ATP were diluted to concentrations of 3 µM and 120 µM, respectively, in buffer 2. Two µl of the compound solution were mixed with 2 µl of the diluted enzyme in a 384-well small volume microtiter plate (Greiner, Bio-One, Frickenhausen, Germany), and the kinase reaction was initiated by addition of 2 µl of the solution containing peptide substrate and ATP. After 60 min incubation at 32 °C, the reaction was stopped by addition of 20 µl of a solution containing 130 mM Hepes-NaOH, pH 7.4, 0.0195 % (v/v) Brij-35, 6.5 mM EDTA, 0.13 % chip coating reagent 3 (Caliper Lifescience Inc, Hopkinton, MA) and 6.5 % (v/v) DMSO. Phosphorylation of the substrate peptide was then detected on a Caliper 3000 instrument essentially as described by Pommereau et al (J. Biomol. Screening 2004, 9(5), 409-416). Separation conditions were as follows: Pressure -0.8 psi, upstream voltage - 3000 V, downstream voltage -800 V. Positive controls (buffer 1 instead of compound) and negative controls (buffer 1 instead of compound and buffer 2 instead of kinase solution) were run in parallel on each plate. Fractional turnover (R) was determined as the height of the peak of the phosphorylated peptide product divided by the sum of the unphosphorylated substrate and phosphorylated product peak heights. Percent-inhibition values for the test compounds were determined using the formula % Inhibition = 100*(1-(Rcompound-Rnegative control)/(Rpositive control-Rnegative control). [formula]\n(§5) In the following table % inhibition values observed with example compounds at a final concentration of 1.14 µM (±0.15 µM) are listed: […]", "units": {"inhibition at 1.14 µM": "%"}}
{"smiles": "O=C(c1cc(-c2ccc(O)cc2)nc2[nH]nc([C@H]3C[C@@H]3c3ccccc3)c12)N1CCNCC1", "note": "(racemic) [Example 18, (±)-[6-(4-Hydroxy-phenyl)-3 trans-(2-phenyl-cyclopropyl)-1 H-pyrazolo[3,4-b]pyridin-4-yl]-piperazin-1-yl-methanone]", "inhibition at 1.14 µM": 94}
{"target": "T1, human full-length recombinant PKC βII", "assay": "Determination of PKC βII inhibition (Caliper mobility-shift kinase assay, phosphorylation of fluorescein peptide substrate)", "assay_type": "biochemical", "conditions": "final compound concentration 1.14 µM (±0.15 µM); 60 min incubation at 32 °C", "protocol": "as §1, §2, §3, §4, §5", "units": {"inhibition at 1.14 µM": "%"}}
{"smiles": "O=C(c1cc(-c2ccc(O)cc2)nc2[nH]nc(/C=C/c3ccc(Cl)cc3)c12)N1CCNCC1", "note": "[Example 1, [3-[(E)-2-(4-Chloro-phenyl)-vinyl]-6-(4-hydroxy-phenyl)-1 H-pyrazolo[3,4-b]pyridin-4-yl]-piperazin-1-yl-methanone]", "inhibition at 1.14 µM": 86}
{"smiles": "O=C(c1cc(-c2ccc(O)cc2)nc2[nH]nc(/C=C/c3ccccc3)c12)N1CCNCC1", "note": "[Example 2, [6-(4-Hydroxy-phenyl)-3-((E)-styryl)-1H-pyrazolo[3,4-b]pyridin-4-yl]-piperazin-1-yl-methanone]", "inhibition at 1.14 µM": 97}
{"smiles": "CC1(C)CNCCN1C(=O)c1cc(-c2ccc(O)cc2)nc2[nH]nc(/C=C/c3ccccc3)c12", "note": "[Example 3, (2,2-Dimethyl-piperazin-1-yl)-[6-(4-hydroxy-phenyl)-3-((E)-styryl)-1 H-pyrazolo[3,4-b]pyridin-4-yl]-methanone]", "inhibition at 1.14 µM": 88}
{"smiles": "CC1(C)CN(C(=O)c2cc(-c3ccc(O)cc3)nc3[nH]nc(/C=C/c4ccccc4)c23)CCN1", "note": "[Example 4, (3,3-Dimethyl-piperazin-1-yl)-[6-(4-hydroxy-phenyl)-3-((E)-styryl)-1H-pyrazolo[3,4-b]pyridin-4-yl]-methanone]", "inhibition at 1.14 µM": 99}
{"smiles": "CC(C)C[C@H]1CN(C(=O)c2cc(-c3ccc(O)cc3)nc3[nH]nc(/C=C/c4ccccc4)c23)CCN1", "note": "[Example 5, [6-(4-Hydroxy-phenyl)-3-((E)-styryl)-1H-pyrazolo[3,4-b]pyridin-4-yl]-((S)-3-isobutyl-piperazin-1-yl)-methanone]", "inhibition at 1.14 µM": 85}
{"smiles": "C[C@H]1CNCCN1C(=O)c1cc(-c2ccc(O)cc2)nc2[nH]nc(/C=C/c3ccccc3)c12", "note": "[Example 6, [6-(4-Hydroxy-phenyl)-3-((E)-styryl)-1H-pyrazolo[3,4-b]pyridin-4-yl]-((S)-2-methyl-piperazin-1-yl)-methanone]", "inhibition at 1.14 µM": 98}
{"smiles": "Cc1cc(O)ccc1-c1cc(C(=O)N2CCNCC2)c2c(/C=C/c3ccccc3)n[nH]c2n1", "note": "[Example 7, [6-(4-Hydroxy-2-methyl-phenyl)-3-((E)-styryl)-1H-pyrazolo[3,4-b]pyridin-4-yl]-piperazin-1-yl-methanone]", "inhibition at 1.14 µM": 96}
{"smiles": "C[C@@H]1CN(C(=O)c2cc(-c3ccc(O)cc3)nc3[nH]nc(/C=C/c4ccccc4)c23)[C@@H](C)CN1", "note": "[Example 8, ((2S,5R)-2,5-Dimethyl-piperazin-1-yl)-[6-(4-hydroxy-phenyl)-3-((E)-styryl)-1H-pyrazolo[3,4-b]pyridin-4-yl]-methanone]", "inhibition at 1.14 µM": 97}
{"smiles": "COc1cc(-c2cc(C(=O)N3CCNCC3)c3c(/C=C/c4ccccc4)n[nH]c3n2)ccc1O", "note": "[Example 9, [6-(4-Hydroxy-3-methoxy-phenyl)-3-((E)-styryl)-1H-pyrazolo[3,4-b]pyridin-4-yl]-piperazin-1-yl-methanone]", "inhibition at 1.14 µM": 55}
{"smiles": "CC[C@H]1CNCCN1C(=O)c1cc(-c2ccc(O)cc2)nc2[nH]nc(/C=C/c3ccccc3)c12", "note": "[Example 10, ((S)-2-Ethyl-piperazin-1-yl)-[6-(4-hydroxy-phenyl)-3-((E)-styryl)-1H-pyrazolo[3,4-b]pyridin-4-yl]-methanone]", "inhibition at 1.14 µM": 87}
{"smiles": "C[C@H]1CNCCN1C(=O)c1cc(-c2ccc(O)cc2F)nc2[nH]nc(/C=C/c3ccccc3)c12", "note": "[Example 11, [6-(2-Fluoro-4-hydroxy-phenyl)-3-((E)-styryl)-1H-pyrazolo[3,4-b]pyridin-4-yl]-((S)-2-methyl-piperazin-1-yl)-methanone]", "inhibition at 1.14 µM": 99}
{"smiles": "O=C(c1cc(-c2ccc(O)c(F)c2)nc2[nH]nc(/C=C/c3ccccc3)c12)N1CCNCC1", "note": "[Example 12, [6-(3-Fluoro-4-hydroxy-phenyl)-3-((E)-styryl)-1H-pyrazolo[3,4-b]pyridin-4-yl]-piperazin-1-yl-methanone]", "inhibition at 1.14 µM": 97}
{"smiles": "O=C(c1cc(-c2ccc(O)cc2Cl)nc2[nH]nc(/C=C/c3ccccc3)c12)N1CCNCC1", "note": "[Example 13, [6-(2-Chloro-4-hydroxy-phenyl)-3-((E)-styryl)-1 H-pyrazolo[3,4-b]pyridin-4-yl]-piperazin-1-yl-methanone]", "inhibition at 1.14 µM": 110}
{"smiles": "CN(C)Cc1cccc(/C=C/c2n[nH]c3nc(-c4ccc(O)cc4)cc(C(=O)N4CCNCC4)c23)c1", "note": "[Example 14, [3-[(E)-2-(3-Dimethylaminomethyl-phenyl)-vinyl]-6-(4-hydroxy-phenyl)-1H-pyrazolo[3,4-b]pyridin-4-yl]-piperazin-1-yl-methanone]", "inhibition at 1.14 µM": 100}
{"smiles": "CS(=O)(=O)Cc1cccc(/C=C/c2n[nH]c3nc(-c4ccc(O)cc4)cc(C(=O)N4CCNCC4)c23)c1", "note": "[Example 15, {6-(4-Hydroxy-phenyl)-3-[(E)-2-(3-methanesulfonylmethyl-phenyl)-vinyl]-1H-pyrazolo[3,4-b]pyridin-4-yl}-piperazin-1-yl-methanone]", "inhibition at 1.14 µM": 99}
{"smiles": "O=C(c1cc(-c2ccc(O)cc2)nc2[nH]nc(/C=C/c3ccccc3)c12)N1CCNC[C@@H]1CO", "note": "[Example 16, ((R)-2-Hydroxymethyl-piperazin-1-yl)-[6-(4-hydroxy-phenyl)-3-((E)-styryl)-1H-pyrazolo[3,4-b]pyridin-4-yl]-methanone]", "inhibition at 1.14 µM": 96}
{"smiles": "O=C(c1cc(-c2ccc(O)cc2)nc2[nH]nc(CCc3ccccc3)c12)N1CCNCC1", "note": "[Example 17, [6-(4-Hydroxy-phenyl)-3-phenethyl-1H-pyrazolo[3,4-b]pyridin-4-yl]-piperazin-1-yl-methanone]", "inhibition at 1.14 µM": 94}
{"smiles": "O=C(c1ccc(/C=C/c2n[nH]c3nc(-c4ccc(O)cc4)cc(C(=O)N4CCNCC4)c23)cc1)N1CCCCC1", "note": "[Example 19, (6-(4-Hydroxy-phenyl)-3-{(E)-2-[4-(piperidine-1-carbonyl)-phenyl]-vinyl}-1Hpyrazolo[3,4-b]pyridin-4-yl)-piperazin-1-yl-methanone]", "inhibition at 1.14 µM": 99}
{"smiles": "O=C(c1cc(-c2ccc(O)cc2)nc2[nH]nc(/C=C/c3cccc(N4CCCC4=O)c3)c12)N1CCNCC1", "note": "[Example 20, 1-(3-{(E)-2-[6-(4-Hydroxy-phenyl)-4-(piperazine-1-carbonyl)-1H-pyrazolo[3,4-b]pyridin-3-yl]-vinyl}-phenyl)-pyrrolidin-2-one]", "inhibition at 1.14 µM": 115}
{"smiles": "Cc1ccc(/C=C/c2n[nH]c3nc(-c4ccc(O)cc4)cc(C(=O)N4CCNCC4)c23)cc1", "note": "[Example 21, [6-(4-Hydroxy-phenyl)-3-((E)-2-p-tolyl-vinyl)-1H-pyrazolo[3,4-b]-pyridin-4-yl]-piperazin-1-yl-methanone]", "inhibition at 1.14 µM": 98}
{"smiles": "CS(=O)(=O)c1cccc(/C=C/c2n[nH]c3nc(-c4ccc(O)cc4)cc(C(=O)N4CCNCC4)c23)c1", "note": "[Example 22, {6-(4-hydroxy-phenyl)-3-[(E)-2-(3-methanesulfonyl-phenyl)-vinyl]-1H-pyrazolo[3,4-b]-pyridin-4-yl}-piperazin-1-yl-methanone]", "inhibition at 1.14 µM": 100}
{"smiles": "CN(C)c1cccc(/C=C/c2n[nH]c3nc(-c4ccc(O)cc4)cc(C(=O)N4CCNCC4)c23)c1", "note": "[Example 23, [3-[(E)-2-(3-Dimethylamino-phenyl)-vinyl]-6-(4-hydroxy-phenyl)-1H-pyra-zolo[3,4-b]pyri-din-4-yl]-pipe-razin-1-yl-methanone]", "inhibition at 1.14 µM": 99}
{"smiles": "CS(=O)(=O)c1ccc(/C=C/c2n[nH]c3nc(-c4ccc(O)cc4)cc(C(=O)N4CCNCC4)c23)cc1", "note": "[Example 24, {6-(4-hydroxy-phenyl)-3-[(E)-2-(4-methanesulfonyl-phenyl)-vinyl]-1H-pyra-zolo[3,4-b]pyri-din-4-yl}-pipe-razin-1-yl-methanone]", "inhibition at 1.14 µM": 99}
{"smiles": "N#Cc1cccc(/C=C/c2n[nH]c3nc(-c4ccc(O)cc4)cc(C(=O)N4CCNCC4)c23)c1", "note": "[Example 25, 3-{(E)-2-[6-(4-Hydroxy-phenyl)-4-(piperazine-1-carbonyl)-1H-pyrazolo[3,4-b]pyridin-3-yl]-vinyl}-benzonitrile]", "inhibition at 1.14 µM": 99}
